Data taken from PubChem BioAssay AID1259407 (Chemical Carcinogenesis Research Information System (CCRIS), 2018).
Activity calls are given as the source filed them. No rule for the calls is given here.

System: CCRIS mutagenicity, Ames/micronucleus/aberration tests
Test: CCRIS mutagenicity studies

Measured: mutagenic call

OC1C=Cc2c(cc3ccc4cccc5ccc2c3c45)C1O (centres undefined)
active: Test System: CHINESE HAMSTER V-79, Strain/Indicator: V-79/OUABAIN, Metabolic Activation: HAMSTER, EMBRYO, CELL-MEDIATED, Method: STANDARD PLATE active; positive

CN(C)CCNC(=O)c1cccc2cc(-c3ccccc3)oc12
active: Test System: AMES SALMONELLA TYPHIMURIUM, Strain/Indicator: TA1537, Metabolic Activation: NONE, Method: STANDARD PLATE active; positive

c1ccc2n[nH]nc2c1
active: Test System: AMES SALMONELLA TYPHIMURIUM, Strain/Indicator: TA1535, Metabolic Activation: HAMSTER, LIVER, S-9, AROCLOR 1254 (10%), Method: PREINCUBATION active; positive | Test System: AMES SALMONELLA TYPHIMURIUM, Strain/Indicator: TA1535, Metabolic Activation: RAT, LIVER, S-9, AROCLOR 1254 (10%), Method: PREINCUBATION active; positive
inactive: Test System: AMES SALMONELLA TYPHIMURIUM, Strain/Indicator: TA97, Metabolic Activation: HAMSTER, LIVER, S-9, AROCLOR 1254 (10%), Method: PREINCUBATION inactive; negative | Test System: AMES SALMONELLA TYPHIMURIUM, Strain/Indicator: TA97, Metabolic Activation: NONE, Method: PREINCUBATION inactive; negative | Test System: AMES SALMONELLA TYPHIMURIUM, Strain/Indicator: TA97, Metabolic Activation: RAT, LIVER, S-9, AROCLOR 1254 (10%), Method: PREINCUBATION inactive; negative | Test System: AMES SALMONELLA TYPHIMURIUM, Strain/Indicator: TA98, Metabolic Activation: HAMSTER, LIVER, S-9, AROCLOR 1254 (10%), Method: PREINCUBATION inactive; negative | Test System: AMES SALMONELLA TYPHIMURIUM, Strain/Indicator: TA98, Metabolic Activation: NONE, Method: PREINCUBATION inactive; negative | Test System: AMES SALMONELLA TYPHIMURIUM, Strain/Indicator: TA98, Metabolic Activation: RAT, LIVER, S-9, AROCLOR 1254 (10%), Method: PREINCUBATION inactive; negative | Test System: AMES SALMONELLA TYPHIMURIUM, Strain/Indicator: TA100, Metabolic Activation: HAMSTER, LIVER, S-9, AROCLOR 1254 (10%), Method: PREINCUBATION inactive; negative | Test System: AMES SALMONELLA TYPHIMURIUM, Strain/Indicator: TA100, Metabolic Activation: NONE, Method: PREINCUBATION inactive; negative | Test System: AMES SALMONELLA TYPHIMURIUM, Strain/Indicator: TA100, Metabolic Activation: RAT, LIVER, S-9, AROCLOR 1254 (10%), Method: PREINCUBATION inactive; negative | Test System: AMES SALMONELLA TYPHIMURIUM, Strain/Indicator: TA1535, Metabolic Activation: NONE, Method: PREINCUBATION inactive; negative | Test System: E. COLI, Strain/Indicator: WP2 UVRA, Metabolic Activation: MOUSE, LIVER, S-9, AROCLOR 1254, Method: STANDARD PLATE inactive; negative

O=C1CCO1
active: Test System: AMES SALMONELLA TYPHIMURIUM, Strain/Indicator: TA100, Metabolic Activation: NONE, Method: STANDARD PLATE active; positive | Test System: AMES SALMONELLA TYPHIMURIUM, Strain/Indicator: TA100, Metabolic Activation: RAT, LIVER, S-9, KC500 OR PHENOBARBITAL, Method: LIQUID SUSPENSION active; positive | Test System: AMES SALMONELLA TYPHIMURIUM, Strain/Indicator: TA1535, Metabolic Activation: NONE, Method: STANDARD PLATE active; positive | Test System: CHINESE HAMSTER V-79, Strain/Indicator: V-79/6-THIOGUANINE, Metabolic Activation: NONE, Method: FLASK ASSAY active; positive | Test System: MOUSE LYMPHOMA, Strain/Indicator: L5178Y (TK+/TK-), Metabolic Activation: NONE, Method: SUSPENSION/PLATE active; positive | Test System: MOUSE LYMPHOMA, Strain/Indicator: L5178Y (TK+/TK-), Metabolic Activation: RAT, LIVER, S-9, AROCLOR 1254, Method: SUSPENSION/PLATE active; positive | Test System: UDS HUMAN FIBROBLASTS, Strain/Indicator: THY INCORP (NON-S-PHASE), Metabolic Activation: NONE, Method: LIQUID SCINTILLATION COUNTING active; positive | Test System: UDS HUMAN LYMPHOCYTES, Strain/Indicator: THY INCORP (NON-S-PHASE), Metabolic Activation: NONE, Method: LIQUID SCINTILLATION COUNTING active; positive | Test System: UDS RODENT PRIMARY CELLS, Strain/Indicator: THY INCORP (NON-S-PHASE), Metabolic Activation: NONE, Method: AUTORADIOGRAPHY active; positive
